According to patent US11104805B2, “High-saturation scarlet color dye ink for high-speed inkjet process” (KOREA INSTITUE OF INDUSTRIAL TECHNOLOGY, priority 2018, dated 2021):
“Also recorded” adds a separate entry of the source.

Tests used:
Water solubility of dyes = format: physicochemical
[1] = UV-Vis absorption spectra of dyes in water; format: physicochemical; details: 10^−5 M in water
Source text: The UV-Vis absorption spectra of the dyes 1b to 3b measured at 10^−5 M in water are illustrated in FIG. 2, and corresponding data are shown in Table 1 below. […] When the water solubility of the dye increases, the probability of being present as a single molecule increases, and thus the color developability of each dye molecule is increased, resulting in increased color intensity.
In addition, an absorption peak form having two absorption maxima appeared. This is because a single molecule and aggregated molecules have different absorption maxima. Generally, as the concentration becomes lower, the probability of being present as a single molecule increases, and as the concentration increases, the tendency to aggregate becomes stronger, and thus one peak appears at each maximum, but it was confirmed from this experiment that since the two cases were present at a measurement concentration of 10 μM, absorption peaks appeared separately.

[2] = Thermal stability by TGA under N2 atmosphere; format: physicochemical
Source text: The thermal stability of each sample was investigated by a TGA method under an N2 atmosphere.

[3] = Light stability: relative absorbance over time under light irradiation
Protocol: An absorbance value before light irradiation was set to 1 and relative absorbance values over time were measured.

Row | SMILES | water solubility compared with the synthesized perylene dyes (1b to 3b) (Water solubility of dyes; comparison in words) | εmax ([1]; at first (or only) absorption maximum) [L/mol/cm] | λmax (nm) (after 1,200 min) ([1]; first (or only) absorption maximum) | Td (degradation temperature) [2] [°C] | shift of absorption maxima after final light irradiation ([3]; 1,200 minutes) | relative absorbance after final light irradiation ([3]; 1,200 minutes, absorbance before irradiation set to 1) | λmax (nm) (after 1200 min) ([3]; after 1200 min light irradiation, first (or only) maximum) | λmax (nm) ([3]; before light irradiation, first (or only) maximum) | K (photodegradation rate constant) ([3]; light irradiation) [min⁻¹] | water solubility (Water solubility of dyes; in water) [wt %]
1 | O=S(=O)([O-])c1ccc2c(N=Nc3ccc(S(=O)(=O)[O-])c4ccccc34)c(O)c(S(=O)(=O)[O-])cc2c1.[Na+].[Na+].[Na+] [Acid red 27] | poorer water solubility; also recorded: deteriorated solubility | 23000 | 521 | 291 | about 4 nm | about 0.5 | (→ 506) nm | 502 | 0.0004945 | –
2 | O=C1c2ccc3c4c(S(=O)(=O)O)cc5c6c(ccc(c7c(S(=O)(=O)O)cc(c2c37)C(=O)N1c1ccc(S(=O)(=O)O)cc1)c64)C(=O)N(c1ccc(S(=O)(=O)O)cc1)C5=O [Dye 3b, N,N′-bis[4-(sulfuric acid)phenyl]-1,7-(disulfuric acid)perylene-3,4,9,10-tetra carboxydiimide] | – | – | – | – | – | – | – | – | – | ≥ 20
